Patent US12516341B2, “Use of flavonoid glycoside substance and glycosyltransferase gene for regulating resistance of plants to weeds” (ZHONGKENONGFU(BEIJING) BIOTECHNOLOGY CO., LTD, priority 2020, dated 2026)

What was measured:
lettuce = test: External application of compound to lettuce seeds on agar, root length; assay type: in vivo; details: external application concentration 500 mg/L in 0.8% agar; 28° C. in the dark for 3 days; compared with control
Description: (§1) The reasons for choosing lettuce and barnyardgrass in the external application experiment were: lettuce was a common indicator crop reported in the literature for external application of allelopathic experiments, while barnyardgrass was the main weed in paddy fields.
(§2) (1) The compound of tricin-5-O-glucopyranoside was dried to a powder with a centrifugal concentrator and weighed, and an appropriate amount of sterile water was added to give a final concentration of 10 mg/mL.
(§3) (2) 500 mL of 0.8% agar was prepared and sterilized in an autoclave.
(§4) (3) The sterilized agar was placed in an ultra-clean bench and cooled to room temperature (note: the medium was not allowed to solidify), and then 4.75 mL of medium was accurately pipetted into a sterilized 10 mL centrifuge tube. 250 μL of the 10 mg/mL compound solution was added to give a final compound concentration of 500 mg/L. The medium containing the compound was quickly poured into a 10 cm×10 cm square dish, and the square dish was shaken quickly to make the medium evenly spread in the square dish. A medium in which 250 μL of sterile water was added to 4.75 mL of the medium was used as a control.
(§5) (4) Barnyardgrass and lettuce seeds were washed several times with distilled water, respectively, and then dried on sterile filter paper. […]
(§6) (7) Phenotypic statistics: the root length of each treated material was counted after 3 days. […]

barnyardgrass = test: External application of compound to barnyardgrass seeds on agar, root length; assay type: in vivo; details: external application concentration 500 mg/L in 0.8% agar; 28° C. in the dark for 3 days; compared with control
Description: as §1, §2, §3, §4, §5, §6

[1] = system: Os07g0503900 recombinant protein; test: In vitro enzyme activity of Os07g0503900 (glycosylation of tricin with UDPG, UPLC-MS detection); assay type: biochemical, rice; details: glycosyl donor UDPG; 30° C. for 1 h; pH 7.0; product tricin-5-O-glucopyranoside
Description: (1) The enzymatic reaction system was: Tris-HCl (pH 7.0, 50 mM, containing 10 mM DTT) 38 μL, 10 mM glycosyl acceptor (the glycosyl acceptor of Os07g0503900 was tricin) 1 μL, 100 mM glycosyl donor (UDPG) 1 μL, and 10 μL of the Os07g0503900 recombinant protein obtained in step 2 (Os07g0503900 protein concentration was 3.77 μg/μL). The reaction was carried out in a water bath at 30° C. for 1 h, and then quenched with an equal volume of methanol. A sample of the protein obtained from the E. coli transformed into the pMAL-c2X empty vector according to the above-mentioned step 2 was added as a control.
(2) Enzyme activity product detection: The sample in (1) was centrifuged at 4° C., 12,000 rpm for 10 min, and 30 μL was taken for detection by UPLC-MS (Agilent 1290UPLC-6540Q-TOF). Mobile phase A phase: 0.1% formic acid aqueous solution, % represented volume percentage; B phase: acetonitrile. Elution gradient: 0-2 min: 5% B-10% B, 2-12 min: 10% B-25% B, 12-18 min: 25% B-70% B, 18-23 min: 70% B-90% B, 23-25 min: 90% B-100% B, 25-30 min: 100% B, post-run for 5 min, % all represented volume percentage. The flow rate was 0.3 mL/min, the column temperature: 40° C., and the injection volume: 5 μL. Electrospray ionization (ESI) was used for detection in positive ion mode. The carrier gas was high-purity nitrogen at a pressure of 40 psi and a temperature of 325° C.

| SMILES | inhibitory effect on the growth of lettuce (root length) (lettuce) | inhibitory effect on the growth of barnyardgrass (root length) (barnyardgrass) | glycosylation of tricin by Os07g0503900 in vitro (new chromatographic peak vs empty vector control) [1] |
| --- | --- | --- | --- |
| COc1cc(-c2cc(=O)c3c(O)cc(O)cc3o2)cc(OC)c1O [tricin] | not obvious | not obvious | Os07g0503900 can catalyze the glycosylation of tricin in vitro |
| COc1cc(-c2cc(=O)c3c(O[C@@H]4O[C@H](CO)[C@@H](O)[C@H](O)[C@H]4O)cc(O)cc3o2)cc(OC)c1O [tricin-5-O-glucopyranoside] | very significant ability to inhibit the growth | very significant ability to inhibit the growth | – |
